Assay results: patent US10294202B2, “Pyrrolidinones as herbicides” (FMC Corporation, priority 2013, dated 2019)

Assays:
wild poinsettia = assay: Test E preemergence herbicide test; type: in vivo, Euphorbia heterophylla; parameters: key: 0 = no effect, 100 = complete control
Procedure, shortened: (§1)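 Planted in silt loam; preemergence spray, non-phytotoxic solvent/surfactant formulation; greenhouse 21 d; visual score 0–100 vs controls.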

nightshade = assay: Test E preemergence herbicide test; type: in vivo, Solanum ptycanthum; parameters: key: 0 = no effect, 100 = complete control
Procedure, shortened: as §1

buckwheat, wild = assay: Test D pre-/postemergence herbicide test; type: in vivo, Polygonum convolvulus; conditions: Postemergence, Buckwheat, Wild, scale 0 to 100
Procedure, shortened: (§2)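 Test chemicals, formulated in a non-phytotoxic solvent mixture with surfactant, are sprayed preemergence onto seeds in silt loam and postemergence onto plants of 2–18 cm. Plants are held in a controlled growth environment for 7 to 21 days, then rated visually versus controls (0–100).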

corn = assay: Test E preemergence herbicide test; type: in vivo, Zea mays; parameters: key: 0 = no effect, 100 = complete control
Procedure, shortened: as §1

bromegrass, downy = assay: Test C pre-/postemergence herbicide test; type: in vivo, Bromus tectorum
Procedure, shortened: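 Pre-emergence: seeds sown in loam/sand blend and treated with compound in surfactant-containing solvent. Post-emergence: plants at 2–18 cm (1- to 4-leaf stage) in peat-based medium sprayed with the same formulation. Visual rating versus controls after 13–15 days in greenhouse, scale 0 (no effect) to 100 (complete control).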

field poppy = assay: Test D pre-/postemergence herbicide test; type: in vivo, Papaver rhoeas; conditions: Postemergence, Field Poppy, scale 0 to 100
Procedure, shortened: as §2

## O=C1NCC(c2ccc(F)c(F)c2)C1C(=O)Nc1cccc(F)c1F (centres unmarked) [Compound 17, N-(2,3-difluorophenyl)-4-(3,4-difluorophenyl)-2-oxo-3-pyrrolidinecarboxamide]
Wild poinsettia; 16 g ai/ha
  Plant response rating, Poinsettia, Wild: 0
Wild poinsettia; 31 g ai/ha
  Plant response rating, Poinsettia, Wild: 0
Wild poinsettia; 62 g ai/ha
  Plant response rating, Poinsettia, Wild: 0
Wild poinsettia; 125 g ai/ha
  Plant response rating, Poinsettia, Wild: 0
Wild poinsettia; 250 g ai/ha
  Plant response rating, Poinsettia, Wild: 20
nightshade; 16 g ai/ha
  Plant response rating, Nightshade: 0
nightshade; 62 g ai/ha
  Plant response rating, Nightshade: 0
nightshade; 125 g ai/ha
  Plant response rating, Nightshade: 0
nightshade; 250 g ai/ha
  Plant response rating, Nightshade: 0
buckwheat, wild; 16 g ai/ha
  Plant response rating: 0
buckwheat, wild; 31 g ai/ha
  Plant response rating: 0
buckwheat, wild; 62 g ai/ha
  Plant response rating: 0
buckwheat, wild; 125 g ai/ha
  Plant response rating: 10
buckwheat, wild; 250 g ai/ha
  Plant response rating: 20
corn; 16 g ai/ha
  Plant response rating, Corn: 0
corn; 31 g ai/ha
  Plant response rating, Corn: 0
corn; 62 g ai/ha
  Plant response rating, Corn: 0
corn; 125 g ai/ha
  Plant response rating, Corn: 0
corn; 250 g ai/ha
  Plant response rating, Corn: 0
bromegrass, downy; Postemergence, 31 g ai/ha, scale 0 (no effect) to 100 (complete control)
  Plant response rating, Bromegrass, Downy: 0
bromegrass, downy; Postemergence, 62 g ai/ha, scale 0 to 100 (0 no effect, 100 complete control)
  Plant response rating, Bromegrass, Downy: 0
bromegrass, downy; Postemergence, 125 g ai/ha, scale 0 to 100 (0 no effect, 100 complete control)
  Plant response rating, Bromegrass, Downy: 0
bromegrass, downy; Postemergence, 250 g ai/ha, scale 0 to 100 (0 no effect, 100 complete control)
  Plant response rating, Bromegrass, Downy: 0
bromegrass, downy; Preemergence, 62 g ai/ha, scale 0 to 100
  Plant response rating, Bromegrass, Downy: 30
bromegrass, downy; Preemergence, 125 g ai/ha, scale 0 to 100 (0 no effect, 100 complete control)
  Plant response rating, Bromegrass, Downy: 45
bromegrass, downy; Preemergence, 31 g ai/ha, scale 0 to 100 (0 no effect, 100 complete control)
  Bromegrass, Downy plant response rating: 0
bromegrass, downy; Preemergence, 250 g ai/ha, scale 0 to 100 (0 no effect, 100 complete control)
  Plant response rating, Bromegrass, Downy: 65
Field poppy; 16 g ai/ha
  Plant response rating: 0
Field poppy; 31 g ai/ha
  Plant response rating: 0
Field poppy; 62 g ai/ha
  Plant response rating: 0
Field poppy; 125 g ai/ha
  Plant response rating: 0
Field poppy; 250 g ai/ha
  Plant response rating: 0
